Data taken from PubChem BioAssay AID248 (DTP/NCI, 2004).
Several values for one entry are separate records, joined by “and”; a condition that tells them apart may be missing. Equal values may be shown once. Toxic doses and inconclusive results are not listed.

Test system: L1210 leukemia ip in BDF1 mice, survival T/C
Test: NCI In Vivo Anticancer Drug Screen. Data for tumor model L1210 Leukemia (intraperitoneal) in B6D2F1 (BDF1) mice
Details: higher = longer survival
Experimental: The antitumor activity of compounds was measured in mice bearing transplantable tumors. Survival or tumor size were measured and the results are expressed as the measurement made in the treated group (T) divided by the measurement made in the vehicle treated control group (C). The tumor model used in this assay is L1210 Leukemia (intraperitoneal) in B6D2F1 (BDF1) mice

[1] = endpoint: mean survival time, dose: 400.0 mg/kg/injection, schedule: Q04DX002 (ip), vehicle: Klucel (hydroxypropylcellulose) (HPC)
[2] = endpoint: mean survival time, dose: 100.0 mg/kg/injection, schedule: Q01DX009 (ip), vehicle: Klucel (hydroxypropylcellulose) (HPC)
[3] = endpoint: mean survival time, dose: 200.0 mg/kg/injection, schedule: Q01DX009 (ip), vehicle: Klucel (hydroxypropylcellulose) (HPC)
[4] = endpoint: mean survival time, dose: 400.0 mg/kg/injection, schedule: Q01DX009 (ip), vehicle: Klucel (hydroxypropylcellulose) (HPC)
[5] = endpoint: mean survival time, dose: 100.0 mg/kg/injection, schedule: Q01DX009 (ip), vehicle: saline
[6] = endpoint: mean survival time, dose: 200.0 mg/kg/injection, schedule: Q01DX009 (ip), vehicle: saline
[7] = endpoint: mean survival time, dose: 100.0 mg/kg/injection, schedule: Q01DX001 (ip), vehicle: saline
[8] = endpoint: mean survival time, dose: 200.0 mg/kg/injection, schedule: Q01DX001 (ip), vehicle: saline
[9] = endpoint: mean survival time, dose: 400.0 mg/kg/injection, schedule: Q01DX001 (ip), vehicle: saline

CC(=O)N(C)c1ccc(NC(=O)Nc2cc([N+](=O)[O-])ccc2C)cc1
T/C (endpoint: mean survival time, dose: 100.0 mg/kg/injection, schedule: Q04DX002 (ip), vehicle: Klucel (hydroxypropylcellulose) (HPC)): 106 % of control
T/C (endpoint: mean survival time, dose: 200.0 mg/kg/injection, schedule: Q04DX002 (ip), vehicle: Klucel (hydroxypropylcellulose) (HPC)): 108 % of control
T/C [1]: 101 % of control

CCN(CC)CCOC(=O)/C=C/c1ccc([N+](=O)[O-])o1
T/C (endpoint: mean survival time, dose: 50.0 mg/kg/injection, schedule: Q01DX Z (ip), vehicle: saline): 103 % of control
T/C (endpoint: mean survival time, dose: 75.0 mg/kg/injection, schedule: Q01DX Z (ip), vehicle: saline): 109 % of control
T/C (endpoint: mean survival time, dose: 113.0 mg/kg/injection, schedule: Q01DX Z (ip), vehicle: saline): 112 % of control

CC(=O)OC1C=CN(C(C)=O)C(SC(C)(C)C)C1OC(C)=O (centres undefined)
T/C [2]: 101 % of control
T/C [3]: 106 % of control
T/C [4]: 100 % of control

O=C(CCCc1ccc(N(CCCl)CCCl)cc1)Nc1ccccc1
T/C (endpoint: mean survival time, dose: 4.0 mg/kg/injection, schedule: Q12HX018 (ip), vehicle: Klucel (hydroxypropylcellulose) (HPC)): 102 % of control
T/C (endpoint: mean survival time, dose: 4.0 mg/kg/injection, schedule: Q12HX018 (ip), vehicle: other): 103 % of control
T/C (endpoint: mean survival time, dose: 6.0 mg/kg/injection, schedule: Q12HX018 (ip), vehicle: other): 101 % of control
T/C (endpoint: mean survival time, dose: 8.0 mg/kg/injection, schedule: Q12HX018 (ip), vehicle: Klucel (hydroxypropylcellulose) (HPC)): 109 % of control
T/C (endpoint: mean survival time, dose: 8.0 mg/kg/injection, schedule: Q12HX018 (ip), vehicle: other): 103 % of control
T/C (endpoint: mean survival time, dose: 16.0 mg/kg/injection, schedule: Q12HX018 (ip), vehicle: Klucel (hydroxypropylcellulose) (HPC)): 104 % of control

CCCCCCC(C)N(CC)CCOC(=O)c1ccc(N)cc1 (centres undefined)
T/C (endpoint: mean survival time, dose: 75.0 mg/kg/injection, schedule: Q01DX001 (ip), vehicle: other): 94 % of control
T/C (endpoint: mean survival time, dose: 150.0 mg/kg/injection, schedule: Q01DX001 (ip), vehicle: other): 98 % of control

Cc1cc(OC(=O)Nc2cc(C(F)(F)F)ccc2Cl)ccc1Cl
T/C [2]: 98 % of control
T/C [3]: 104 % of control
T/C [4]: 95 % of control

CCCCCCCCCCOP(=S)(N1CC1)N1CC1
T/C (endpoint: mean survival time, dose: 2.5 mg/kg/injection, schedule: Q01DX Z (ip), vehicle: carboxymethylcellulose (CMC)): 107 % of control
T/C (endpoint: mean survival time, dose: 5.0 mg/kg/injection, schedule: Q01DX Z (ip), vehicle: carboxymethylcellulose (CMC)): 118 % of control
T/C (endpoint: mean survival time, dose: 20.0 mg/kg/injection, schedule: Q01DX Z (ip), vehicle: carboxymethylcellulose (CMC)): 232 % of control and 260 % of control
T/C (endpoint: mean survival time, dose: 40.0 mg/kg/injection, schedule: Q01DX Z (ip), vehicle: carboxymethylcellulose (CMC)): 150 % of control

CCOC(=O)c1c[nH]c2oc(/C=N/N3CC(CN4CCOCC4)OC3=O)cc2c1=O (centres undefined)
T/C (endpoint: median survival time, dose: 25.0 mg/kg/injection, schedule: Q01DX009 (ip), vehicle: acid diluted with saline): 110 % of control
T/C (endpoint: median survival time, dose: 50.0 mg/kg/injection, schedule: Q01DX009 (ip), vehicle: acid diluted with saline): 111 % of control
T/C (endpoint: median survival time, dose: 200.0 mg/kg/injection, schedule: Q01DX009 (ip), vehicle: acid diluted with saline): 152 % of control

O=c1[nH]cncc1CCC1OCCO1
T/C [5]: 98 % of control
T/C [6]: 109 % of control

CC(C)Cn1cnc2c(=S)nc(N)[nH]c21
T/C (endpoint: mean survival time, dose: 6.0 mg/kg/injection, schedule: Q01DX015 (ip), vehicle: other): 107 % of control
T/C (endpoint: mean survival time, dose: 9.0 mg/kg/injection, schedule: Q01DX015 (ip), vehicle: carboxymethylcellulose (CMC)): 103 % of control
T/C (endpoint: mean survival time, dose: 9.0 mg/kg/injection, schedule: Q01DX015 (ip), vehicle: other): 111 % of control
T/C (endpoint: mean survival time, dose: 13.0 mg/kg/injection, schedule: Q01DX015 (ip), vehicle: carboxymethylcellulose (CMC)): 104 % of control
T/C (endpoint: mean survival time, dose: 20.0 mg/kg/injection, schedule: Q01DX015 (ip), vehicle: carboxymethylcellulose (CMC)): 109 % of control
T/C (endpoint: mean survival time, dose: 21.0 mg/kg/injection, schedule: Q01DX015 (ip), vehicle: other): 150 % of control
T/C (endpoint: mean survival time, dose: 22.0 mg/kg/injection, schedule: Q01DX001 (ip), vehicle: carboxymethylcellulose (CMC)): 114 % of control
T/C (endpoint: mean survival time, dose: 44.0 mg/kg/injection, schedule: Q01DX015 (ip), vehicle: carboxymethylcellulose (CMC)): 109 % of control
T/C (endpoint: mean survival time, dose: 60.0 mg/kg/injection, schedule: Q01DX015 (ip), vehicle: other): 124 % of control
T/C (endpoint: mean survival time, dose: 66.0 mg/kg/injection, schedule: Q01DX015 (ip), vehicle: carboxymethylcellulose (CMC)): 98 % of control
T/C (endpoint: mean survival time, dose: 100.0 mg/kg/injection, schedule: Q01DX001 (ip), vehicle: carboxymethylcellulose (CMC)): 155 % of control
T/C (endpoint: mean survival time, dose: 100.0 mg/kg/injection, schedule: Q01DX015 (ip), vehicle: carboxymethylcellulose (CMC)): 98 % of control
T/C (endpoint: mean survival time, dose: 100.0 mg/kg/injection, schedule: Q01DX015 (ip), vehicle: other): 121 % of control
T/C (endpoint: mean survival time, dose: 200.0 mg/kg/injection, schedule: Q01DX001 (ip), vehicle: carboxymethylcellulose (CMC)): 153 % of control and 161 % of control
T/C (endpoint: mean survival time, dose: 400.0 mg/kg/injection, schedule: Q01DX001 (ip), vehicle: carboxymethylcellulose (CMC)): 112 % of control

Nc1nc(N)nc(CCP(CCc2nc(N)nc(N)n2)CCc2nc(N)nc(N)n2)n1
T/C (endpoint: mean survival time, dose: 25.0 mg/kg/injection, schedule: Q01DX009 (ip), vehicle: Klucel (hydroxypropylcellulose) (HPC)): 110 % of control
T/C (endpoint: mean survival time, dose: 50.0 mg/kg/injection, schedule: Q01DX009 (ip), vehicle: Klucel (hydroxypropylcellulose) (HPC)): 108 % of control
T/C [2]: 104 % of control
T/C (endpoint: mean survival time, dose: 100.0 mg/kg/injection, schedule: Q04DX003 (ip), vehicle: Klucel (hydroxypropylcellulose) (HPC)): 110 % of control and 113 % of control
T/C (endpoint: mean survival time, dose: 200.0 mg/kg/injection, schedule: Q04DX003 (ip), vehicle: Klucel (hydroxypropylcellulose) (HPC)): 98 % of control and 100 % of control
T/C (endpoint: mean survival time, dose: 400.0 mg/kg/injection, schedule: Q04DX003 (ip), vehicle: Klucel (hydroxypropylcellulose) (HPC)): 101 % of control

O=C1OCC(O)=C1Cc1ccccc1
T/C [7]: 101 % of control
T/C [8]: 89 % of control
T/C [9]: 94 % of control

CNc1ccccc1CCc1ccccc1CO
T/C [1]: 89 % of control

CNc1c(Cl)n(C)c(=O)n(C)c1=O
T/C (endpoint: mean survival time, dose: 50.0 mg/kg/injection, schedule: Q01DX001 (ip), vehicle: saline): 101 % of control
T/C [7]: 101 % of control
T/C [8]: 104 % of control
T/C [9]: 101 % of control

CC1S(=O)(=O)CCS1(=O)=O
T/C (endpoint: mean survival time, dose: 75.0 mg/kg/injection, schedule: Q01DX001 (ip), vehicle: saline with Tween-80): 100 % of control
T/C (endpoint: mean survival time, dose: 150.0 mg/kg/injection, schedule: Q01DX001 (ip), vehicle: saline with Tween-80): 100 % of control
T/C (endpoint: mean survival time, dose: 300.0 mg/kg/injection, schedule: Q01DX001 (ip), vehicle: saline with Tween-80): 103 % of control

CCS(=O)(=O)Nc1cccc(Nc2c3cccc(C)c3nc3c(C)cccc23)c1OC
T/C (endpoint: mean survival time, dose: 5.5 mg/kg/injection, schedule: Q01DX009 (ip), vehicle: saline): 122 % of control
T/C (endpoint: mean survival time, dose: 11.0 mg/kg/injection, schedule: Q04DX003 (ip), vehicle: saline): 113 % of control
T/C (endpoint: mean survival time, dose: 12.5 mg/kg/injection, schedule: Q01DX009 (ip), vehicle: saline with Tween-80): 155 % of control
T/C (endpoint: mean survival time, dose: 12.5 mg/kg/injection, schedule: Q01DX009 (sc), vehicle: Klucel (hydroxypropylcellulose) (HPC)): 112 % of control
T/C (endpoint: mean survival time, dose: 16.0 mg/kg/injection, schedule: Q04DX003 (ip), vehicle: saline): 114 % of control
T/C (endpoint: mean survival time, dose: 25.0 mg/kg/injection, schedule: Q01DX009 (ip), vehicle: saline with Tween-80): 181 % of control
T/C (endpoint: mean survival time, dose: 25.0 mg/kg/injection, schedule: Q01DX009 (sc), vehicle: Klucel (hydroxypropylcellulose) (HPC)): 123 % of control
T/C (endpoint: mean survival time, dose: 50.0 mg/kg/injection, schedule: Q01DX009 (ip), vehicle: saline with Tween-80): 103 % of control
T/C (endpoint: mean survival time, dose: 50.0 mg/kg/injection, schedule: Q04DX003 (ip), vehicle: saline): 157 % of control
T/C (endpoint: mean survival time, dose: 100.0 mg/kg/injection, schedule: Q04DX003 (ip), vehicle: saline): 170 % of control

N#CCCN(CCc1ccccn1)C(=S)Nc1cccc(C(F)(F)F)c1
T/C (endpoint: mean survival time, dose: 100.0 mg/kg/injection, schedule: Q01DX009 (ip), vehicle: other): 110 % of control
T/C (endpoint: mean survival time, dose: 200.0 mg/kg/injection, schedule: Q01DX009 (ip), vehicle: other): 98 % of control
T/C (endpoint: mean survival time, dose: 400.0 mg/kg/injection, schedule: Q01DX009 (ip), vehicle: other): 110 % of control

CC1=CCC2(C)CCC(C(C)C)C2(O)CC1 (centres undefined)
T/C [5]: 91 % of control
T/C [6]: 93 % of control

CCOc1ccc(/C=C/c2ccc(OCC)cc2)cc1
T/C [2]: 90 % of control
T/C [3]: 90 % of control
T/C [4]: 93 % of control
